ChEMBL document CHEMBL3885881, “DrugMatrix”

Organism: Rattus norvegicus
Assay: DrugMatrix - Regimen: Daily Repeat
Format: toxicity, organism-based, Sprague-Dawley
Parameters: regimen Daily Repeat, gender Male, age 6-8 weeks
Conditions: in vivo, po, 1200 mg/kg, route oral GAVAGE, dose level High, vehicle .5 % CMC; for ABSOLUTE BASOPHIL / ABSOLUTE EOSINOPHIL / ABSOLUTE LYMPHOCYTE / ABSOLUTE MONOCYTE / ABSOLUTE SEGMENTED NEUTROPHIL / BASOPHIL / EOSINOPHIL / ERYTHROCYTE COUNT / HEMATOCRIT / HEMOGLOBIN / LEUKOCYTE COUNT / LYMPHOCYTE / MEAN CORPUSCULAR HEMOGLOBIN / MEAN CORPUSCULAR HEMOGLOBIN CONCENTRATION / MEAN CORPUSCULAR VOLUME / MONOCYTE / NEUTROPHIL / NUCLEATED RED BLOOD CELLS / PLATELET COUNT: tissue Blood; for ALANINE AMINOTRANSFERASE / ALBUMIN / ALKALINE PHOSPHATASE / ASPARTATE AMINOTRANSFERASE / BLOOD UREA NITROGEN / CARBON DIOXIDE / CHLORIDE / CHOLESTEROL / CREATININE / GLUCOSE / LACTATE DEHYDROGENASE / LIPASE / PHOSPHORUS / POTASSIUM / SODIUM / TOTAL BILIRUBIN / TOTAL PROTEIN / URIC ACID: tissue Plasma

Nc1ccc(Cl)cc1[N+](=O)[O-] [4-CHLORO-2-NITROANILINE]
ABSOLUTE BASOPHIL (120 h, time 5 day): 0 CELLS/uL
ABSOLUTE EOSINOPHIL (120 h, time 5 day): 100.67 CELLS/uL
ABSOLUTE LYMPHOCYTE (120 h, time 5 day): 9384 CELLS/uL
ABSOLUTE MONOCYTE (120 h, time 5 day): 183 CELLS/uL
ABSOLUTE SEGMENTED NEUTROPHIL (120 h, time 5 day): 1099 CELLS/uL
BASOPHIL (120 h, time 5 day): 0%
EOSINOPHIL (120 h, time 5 day): 1%
ERYTHROCYTE COUNT (120 h, time 5 day): 6.3 x10E6/uL
HEMATOCRIT (120 h, time 5 day): 37.27%
HEMOGLOBIN (120 h, time 5 day): 13.47 G/DL
LEUKOCYTE COUNT (120 h, time 5 day): 10.77 x10E3/uL
LYMPHOCYTE (120 h, time 5 day): 87%
MEAN CORPUSCULAR HEMOGLOBIN (120 h, time 5 day): 21.43 pg
MEAN CORPUSCULAR HEMOGLOBIN CONCENTRATION (120 h, time 5 day): 36.17 G/DL
MEAN CORPUSCULAR VOLUME (120 h, time 5 day): 59.17 fL
MONOCYTE (120 h, time 5 day): 1.67%
NEUTROPHIL (120 h, time 5 day): 10.33%
NUCLEATED RED BLOOD CELLS (120 h, time 5 day): 0 /100WBC
PLATELET COUNT (120 h, time 5 day): 947 x10E3/uL
ALANINE AMINOTRANSFERASE (120 h, time 5 day): 49 u/L
ALBUMIN (120 h, time 5 day): 4.1 G/DL
ALKALINE PHOSPHATASE (120 h, time 5 day): 387 u/L
ASPARTATE AMINOTRANSFERASE (120 h, time 5 day): 69 u/L
BLOOD UREA NITROGEN (120 h, time 5 day): 12.67 mg/dL
CARBON DIOXIDE (120 h, time 5 day): 31 mmol/L
CHLORIDE (120 h, time 5 day): 102.67 MEQ/L
CHOLESTEROL (120 h, time 5 day): 97.33 mg/dL
CREATININE (120 h, time 5 day): 0.18 mg/dL
GLUCOSE (120 h, time 5 day): 126.33 mg/dL
LACTATE DEHYDROGENASE (120 h, time 5 day): 87 u/L
LIPASE (120 h, time 5 day): 10 u/L
PHOSPHORUS (120 h, time 5 day): 12.2 mg/dL
POTASSIUM (120 h, time 5 day): 7.1 MEQ/L
SODIUM (120 h, time 5 day): 147.03 MEQ/L
TOTAL BILIRUBIN (120 h, time 5 day): 0.23 mg/dL
TOTAL PROTEIN (120 h, time 5 day): 6.2 G/DL
URIC ACID (120 h, time 5 day): 1.5 mg/dL
ABSOLUTE BASOPHIL ([…], time 14 day): 0 CELLS/uL
ABSOLUTE EOSINOPHIL ([…], time 14 day): 305.4 CELLS/uL
ABSOLUTE LYMPHOCYTE ([…], time 14 day): 16745.4 CELLS/uL
ABSOLUTE MONOCYTE ([…], time 14 day): 700 CELLS/uL
ABSOLUTE SEGMENTED NEUTROPHIL ([…], time 14 day): 2009.2 CELLS/uL
BASOPHIL ([…], time 14 day): 0%
EOSINOPHIL ([…], time 14 day): 1.6%
ERYTHROCYTE COUNT ([…], time 14 day): 6.12 x10E6/uL
HEMATOCRIT ([…], time 14 day): 34.88%
HEMOGLOBIN ([…], time 14 day): 12.64 G/DL
LEUKOCYTE COUNT ([…], time 14 day): 19.76 x10E3/uL
LYMPHOCYTE ([…], time 14 day): 84.4%
MEAN CORPUSCULAR HEMOGLOBIN ([…], time 14 day): 20.64 pg
MEAN CORPUSCULAR HEMOGLOBIN CONCENTRATION ([…], time 14 day): 36.24 G/DL
MEAN CORPUSCULAR VOLUME ([…], time 14 day): 56.98 fL
MONOCYTE ([…], time 14 day): 3.4%
NEUTROPHIL ([…], time 14 day): 10.6%
NUCLEATED RED BLOOD CELLS ([…], time 14 day): 0 /100WBC
PLATELET COUNT ([…], time 14 day): 1103.4 x10E3/uL
ALANINE AMINOTRANSFERASE ([…], time 14 day): 58.8 u/L
ALBUMIN ([…], time 14 day): 4.18 G/DL
ALKALINE PHOSPHATASE ([…], time 14 day): 347.4 u/L
ASPARTATE AMINOTRANSFERASE ([…], time 14 day): 113.2 u/L
BLOOD UREA NITROGEN ([…], time 14 day): 20 mg/dL
CARBON DIOXIDE ([…], time 14 day): 28 mmol/L
CHLORIDE ([…], time 14 day): 100.8 MEQ/L
CHOLESTEROL ([…], time 14 day): 80.8 mg/dL
CREATININE ([…], time 14 day): 0.27 mg/dL
GLUCOSE ([…], time 14 day): 164.4 mg/dL
LACTATE DEHYDROGENASE ([…], time 14 day): 192 u/L
LIPASE ([…], time 14 day): 10.8 u/L
PHOSPHORUS ([…], time 14 day): 12.48 mg/dL
POTASSIUM ([…], time 14 day): 6.05 MEQ/L
SODIUM ([…], time 14 day): 146.34 MEQ/L
TOTAL BILIRUBIN ([…], time 14 day): 0.3 mg/dL
TOTAL PROTEIN ([…], time 14 day): 6.3 G/DL
URIC ACID ([…], time 14 day): 1.32 mg/dL
